{
  "source": "patent US20250353898A1",
  "about": "“SERPIN PEPTIDE DERIVATIVES AND METHODS OF USING THE SAME” (priority 2022, published 2025)",
  "key": {"TMPRSS2": {"molecular_target": "T1, TMPRSS2 (Homo sapiens, UniProt O15393)", "T1 construct": "expressed in transfected cells", "T1 sequence (O15393 whole entry)": "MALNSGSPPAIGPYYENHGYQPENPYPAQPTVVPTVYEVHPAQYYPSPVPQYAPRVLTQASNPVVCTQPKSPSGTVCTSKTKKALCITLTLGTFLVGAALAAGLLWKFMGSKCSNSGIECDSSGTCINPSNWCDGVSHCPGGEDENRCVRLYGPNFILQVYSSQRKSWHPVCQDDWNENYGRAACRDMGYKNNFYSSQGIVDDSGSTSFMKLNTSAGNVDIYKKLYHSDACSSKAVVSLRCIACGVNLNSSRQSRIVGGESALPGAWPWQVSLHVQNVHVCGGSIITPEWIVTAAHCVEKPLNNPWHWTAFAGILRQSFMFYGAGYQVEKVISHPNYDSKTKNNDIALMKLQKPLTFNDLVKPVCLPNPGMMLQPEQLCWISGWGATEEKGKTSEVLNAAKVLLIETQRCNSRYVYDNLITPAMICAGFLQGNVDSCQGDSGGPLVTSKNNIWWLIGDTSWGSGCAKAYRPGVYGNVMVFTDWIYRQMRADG", "experiment": "cell-based", "details": "overexpressing cell system; read-out: IC50 against TMPRSS2 (converted)"}, "IL-6": {"test_system": "IL-6", "experiment": "IL-6 secretion in IMG microglial cells after LPS (ELISA)", "type": "cell-based", "details": "IMG microglial cells, LPS 100 ng/ml, 24 hours"}, "NFκB": {"test_system": "NFκB", "experiment": "NFκB reporter assay (SEAP) in THP1-XBlue-MD2-CD14 cells after LPS", "type": "cell-based", "experimental": "The NFκB inducible Secreted Embryonic Alkaline Phosphatase (SEAP) was measured in the supernatant and read for absorbance.\n(§1) Various SERPIN peptide derivatives were screened in vitro for their ability to reduce TNFα and NFκB secretion via LRP-1 activation. The NFκB reporter cells (THP1-XBlue-MD2-CD14 cells) were treated with each peptide derivative at various concentrations, up to 100 μg/ml before being insulted with LPS (5 ng/ml) and incubated overnight. The NFκB inducible Secreted Embryonic Alkaline Phosphatase (SEAP) was measured in the supernatant and read for absorbance. IMG Microglial cells were treated with each peptide derivative at various concentrations, up to 100 μg/ml before LPS (100 ng/ml) stimulation for 24 hours. An ELISA was used to measure TNFα in the supernatant ([…])."}, "TNFα": {"test_system": "TNFα", "experiment": "TNFα secretion in IMG microglial cells after LPS (ELISA)", "type": "cell-based", "details": "FIG. 6A/7, up to 50 μg/mL, LPS 100 ng/ml 24 hours; versus SP163M, SA7", "experimental": "In the NFκB reporter cells, the NFκB inducible Secreted Embryonic Alkaline Phosphatase (SEAP) was measured in the supernatant. TNFα secretion in the supernatant was measured via ELISA.\nas §1"}},
  "note": "Positions of bridges follow the written chain, without caps; N, C: chain ends. Non-standard residues stand in square brackets, D forms with d. Residues, ends and D or L forms follow the SMILES beside them. Nle = CCCC[C@H](N)C(=O)O",
  "data": [
    {"compound": "CCCC[C@@H]1NC(=O)[C@H](CC(C)C)NC(=O)[C@H](Cc2ccccc2)NC(=O)[C@H](C(C)C)NC(=O)[C@H](Cc2ccccc2)NC(=O)[C@@H]2CCCN2C(=O)[C@@H](NC(=O)[C@H](CCCNC(=N)N)NC(=O)[C@H](CCCNC(=N)N)NC(=O)[C@H](CCCNC(=N)N)NC(C)=O)CSSC[C@@H](C(=O)O)NC1=O", "note": "[SA7] (Ac-RRRCPFVFL[Nle]C-OH; disulfide 4-11)", "values": [
      {"measurement": "IC50", "setting": "TMPRSS2", "value": 57.2, "unit": "nM"}
    ]},
    {"compound": "Ac- RRRKFT[Nal]]LD (cyclic) [Peptide A3-7]", "values": [
      {"measurement": "EC50 IL-6", "setting": "IL-6", "value": 3.651, "unit": "µg/mL"},
      {"measurement": "EC50 NFκB", "setting": "NFκB; NFκB reporter cells, LPS 5 ng/ml", "value": 22.41, "unit": "µg/mL"}
    ]},
    {"compound": "HN-RRRFVFLAD (cyclic) (not fully specified; cyclised or stapled) [Peptide A2-3]", "values": [
      {"measurement": "activity in reducing NFκB activation", "setting": "NFκB; FIG. 6B/7, up to 50 μg/mL, LPS 5 ng/ml 24 hours, versus SP163M, SA7", "value": "superior activities"},
      {"measurement": "activity in reducing TNFα", "setting": "TNFα", "value": "superior activities in reducing TNFα"}
    ]}
  ]
}
